Source: patent US8609836B2, “4-aryl-2-anilino-pyrimidines” (Janssen Pharmaceutica NV, priority 2008, dated 2013)

Key:
[1] = target: PLK4 (h) (Homo sapiens, UniProt O00444); assay: PLK-4 human kinase inhibition, scintillation proximity assay (SPA); type: biochemical; conditions: read-out: PLK4 pIC50 (converted)
Experimental: (§1) In the SPA technology the activity of the kinase of interest is measured using an appropriate biotinylated substrate that is incubated with the aforementioned kinase protein in the presence of (^33P) radiolabeled ATP. (^33P) Phosphorylation of the substrate is subsequently measured through binding of the phosphorylated substrate to streptavidine coated beads that are based on the scintillant poly(vinyl toluene) (PVT-Beads). The scintillation intensity is detected by imaging on Leadseeker.
(§2) All kinases are pre-diluted to a 10× working concentration prior to addition into the assay. The composition of the dilution buffer for each kinase is detailed below.
(6.0 μCi/ml). After incubation of 60 minutes at room temperature, the reaction is stopped by addition of 40 μL of stop solution containing 8.7 mM EDTA, BSA 0.17%, 0.17% Triton X-100, 1.7 mg/ml SPA beads (GE-healthcare). The plate is centrifuged and read for Scintillation imaging on Leadseeker.

[2] = target: AuroraB (h) (Homo sapiens, UniProt Q96GD4); assay: Aurora-B human kinase inhibition, SPA; type: biochemical; conditions: read-out: AuroraB pIC50 (converted)
AuroraB (h), sequence (Q96GD4 whole entry): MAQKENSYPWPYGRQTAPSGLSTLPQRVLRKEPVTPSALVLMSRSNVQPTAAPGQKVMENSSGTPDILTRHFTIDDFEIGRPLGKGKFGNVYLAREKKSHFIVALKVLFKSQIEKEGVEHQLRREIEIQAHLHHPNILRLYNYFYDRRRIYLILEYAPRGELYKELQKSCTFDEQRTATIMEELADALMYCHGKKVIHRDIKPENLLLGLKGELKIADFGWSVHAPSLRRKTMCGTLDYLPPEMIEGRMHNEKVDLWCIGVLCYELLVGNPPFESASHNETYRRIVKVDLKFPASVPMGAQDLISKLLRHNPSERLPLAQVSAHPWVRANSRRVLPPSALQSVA
Experimental: (§3) The in vitro inhibition of a panel of kinases was assessed using either the scintillation proximity assay (SPA) as described by Cook, N. D. et al., Advances in Experimental Medicine and Biology (1991), 36; p. 525-528.
as §1, §2
In a final reaction volume of 30 μl, AuroraB (h) (0.5 μg/ml) is incubated with 60 mM Hepes pH 7.5, 3 mM MgCl2, 3 mM MnCl2, 3 μM Na3VO4, 0.05 mg/ml PEG, 2 mM DTT, 3 μM Biotin-[…]-OH, 0.5 μM ATP and 2.2 nM [γ-^33P-ATP] (6.8 μCi/ml). After incubation of 60 minutes at room temperature, the reaction is stopped by addition of 40 μL of stop solution containing 8.7 mM EDTA, BSA 0.17%, 0.17% Triton X-100, 5 mg/ml SPA beads (GE-healthcare). The plate is centrifuged and read for Scintillation imaging on Leadseeker.

[3] = target: GSK3β (h) (Homo sapiens, UniProt P49841); assay: GSK-3β human kinase inhibition, SPA; type: biochemical; conditions: read-out: GSK3b pIC50 (converted)
GSK3β (h), sequence (P49841 whole entry): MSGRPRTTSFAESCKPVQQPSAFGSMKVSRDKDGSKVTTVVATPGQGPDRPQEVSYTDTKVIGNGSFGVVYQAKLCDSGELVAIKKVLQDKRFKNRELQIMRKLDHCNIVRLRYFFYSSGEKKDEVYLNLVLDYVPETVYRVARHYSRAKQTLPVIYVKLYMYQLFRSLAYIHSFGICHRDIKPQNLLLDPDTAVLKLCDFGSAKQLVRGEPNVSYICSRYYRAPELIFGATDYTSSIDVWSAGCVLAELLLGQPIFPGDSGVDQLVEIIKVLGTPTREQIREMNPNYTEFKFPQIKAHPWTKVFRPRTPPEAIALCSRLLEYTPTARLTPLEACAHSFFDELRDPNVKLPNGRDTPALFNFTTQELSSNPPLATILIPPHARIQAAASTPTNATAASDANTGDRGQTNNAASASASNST
Experimental: as §3, §1, §2
In a final reaction volume of 30 μl, GSK3β (h) (1 μg/ml) is incubated with 25 mM Tris pH 7.4, 10 mM MgCl2, 1 mM DTT, 1 μM peptide Biotin-[…]-OH, 1 μM ATP and 2 nM [γ-^33P-ATP] (6.0 μCi/ml). After incubation of 60 minutes at room temperature, the reaction is stopped by addition of 40 μL of stop solution containing 8.7 mM EDTA, BSA 0.17%, 0.17% Triton X-100, 6.25 mg/ml SPA beads (GE-healthcare). The plate is centrifuged and read for Scintillation imaging on Leadseeker.

[4] = target: CDK1/CyclinB (h) (Homo sapiens, UniProt P06493); assay: CDK1/CyclinB human kinase inhibition, Invitrogen's FRET assay (Z'lyte); type: biochemical; conditions: read-out: CDK1 pIC50 (converted)
CDK1/CyclinB (h), sequence (P06493 whole entry): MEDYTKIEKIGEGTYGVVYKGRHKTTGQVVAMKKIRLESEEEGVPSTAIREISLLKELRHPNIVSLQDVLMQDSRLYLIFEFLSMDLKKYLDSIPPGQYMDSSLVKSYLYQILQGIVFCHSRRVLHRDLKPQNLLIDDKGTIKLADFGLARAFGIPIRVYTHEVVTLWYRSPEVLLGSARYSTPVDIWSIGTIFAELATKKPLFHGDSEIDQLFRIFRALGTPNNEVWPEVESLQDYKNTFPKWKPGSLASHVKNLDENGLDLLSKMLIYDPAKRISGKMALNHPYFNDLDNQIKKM
CDK1/CyclinB (h), sequence (P14635 whole entry partner): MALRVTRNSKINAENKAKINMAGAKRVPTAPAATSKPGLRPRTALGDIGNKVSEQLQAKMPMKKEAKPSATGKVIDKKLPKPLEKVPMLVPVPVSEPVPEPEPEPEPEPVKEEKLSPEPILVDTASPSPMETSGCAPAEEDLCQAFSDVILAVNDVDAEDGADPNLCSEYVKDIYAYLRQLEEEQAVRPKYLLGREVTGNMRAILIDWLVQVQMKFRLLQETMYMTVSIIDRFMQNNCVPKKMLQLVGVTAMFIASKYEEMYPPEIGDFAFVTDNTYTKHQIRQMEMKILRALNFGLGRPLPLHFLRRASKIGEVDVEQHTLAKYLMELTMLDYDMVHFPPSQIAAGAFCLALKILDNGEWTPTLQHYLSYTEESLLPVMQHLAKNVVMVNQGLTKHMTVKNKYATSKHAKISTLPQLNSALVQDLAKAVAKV
Experimental: as §3, §2
In a final reaction volume of 10 μl, CDK1/CyclinB (h) (0.2 μg/ml) is incubated with 50 mM Hepes pH 7.5, 10 mM MgCl2, 1 mM EGTA, 0.01% Brij-35, 2 μM Z'lyte Ser/Thr peptide 12 and 10 μM ATP (Invitrogen's FRET assay). After incubation of 60 minutes at room temperature, the reaction is stopped by addition of 5 μL development reagent containing protease mix. After 60 minutes room temperature the development reaction is stopped by adding 5 μl stop solution. The plate is then read in fluorescence plate reader with excitation: 390 nm and dual emission: 460 and 538 nm. Emission ratio is determined to the formula=Emission signal intensity at 460 nm/Emission signal intensity at 538 nm.

[5] = target: CDK4/CyclinD1 (h) (Homo sapiens, UniProt P11802); assay: CDK4/CyclinD1 human kinase inhibition, SPA with GST-pRb substrate; type: biochemical; conditions: read-out: CDK4 pIC50 (converted)
CDK4/CyclinD1 (h), sequence (P11802 whole entry): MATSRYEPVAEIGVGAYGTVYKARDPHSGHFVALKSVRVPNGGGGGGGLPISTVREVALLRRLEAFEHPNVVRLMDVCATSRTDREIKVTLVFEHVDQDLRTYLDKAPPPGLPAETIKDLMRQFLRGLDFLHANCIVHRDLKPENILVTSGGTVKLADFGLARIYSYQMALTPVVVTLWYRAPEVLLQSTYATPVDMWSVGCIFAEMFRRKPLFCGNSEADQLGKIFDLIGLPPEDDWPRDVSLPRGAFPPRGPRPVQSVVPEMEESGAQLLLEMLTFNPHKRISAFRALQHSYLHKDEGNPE
CDK4/CyclinD1 (h), sequence (P24385 whole entry partner): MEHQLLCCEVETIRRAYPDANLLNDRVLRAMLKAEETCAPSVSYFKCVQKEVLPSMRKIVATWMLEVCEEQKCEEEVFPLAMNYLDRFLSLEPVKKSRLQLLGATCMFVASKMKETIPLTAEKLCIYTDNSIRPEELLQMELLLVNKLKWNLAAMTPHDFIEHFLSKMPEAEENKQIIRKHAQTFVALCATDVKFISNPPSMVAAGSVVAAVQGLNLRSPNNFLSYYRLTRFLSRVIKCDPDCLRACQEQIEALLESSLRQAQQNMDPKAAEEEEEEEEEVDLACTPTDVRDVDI
Experimental: as §3, §1, §2
In a final reaction volume of 30 μl, CDK4/CyclinD1 (h) (2.5 μg/ml) is incubated with 50 mM Hepes pH 7.5, 8 mM NaF, 20 mM MgCl2, 1 mM DTT, 40 μg/ml of substrate GST-pRb, 2 nM [γ-^33P-ATP] (6.0 μCi/ml). After incubation of 60 minutes at room temperature, the reaction is stopped by addition of 40 μL of stop solution containing 8.7 mM EDTA, 0.17% Triton X-100, 25 mg/ml Glutathion SPA Beads (GE-healthcare). The plate is centrifuged and read for Scintillation topcount analyzer.

[6] = target: PLK1 T210D (h) (Homo sapiens, UniProt P53350, T210D); assay: PLK1 human kinase inhibition, SPA; type: biochemical; conditions: read-out: PLK1 pIC50 (converted)
PLK1 T210D (h), sequence (P53350 whole entry T210D): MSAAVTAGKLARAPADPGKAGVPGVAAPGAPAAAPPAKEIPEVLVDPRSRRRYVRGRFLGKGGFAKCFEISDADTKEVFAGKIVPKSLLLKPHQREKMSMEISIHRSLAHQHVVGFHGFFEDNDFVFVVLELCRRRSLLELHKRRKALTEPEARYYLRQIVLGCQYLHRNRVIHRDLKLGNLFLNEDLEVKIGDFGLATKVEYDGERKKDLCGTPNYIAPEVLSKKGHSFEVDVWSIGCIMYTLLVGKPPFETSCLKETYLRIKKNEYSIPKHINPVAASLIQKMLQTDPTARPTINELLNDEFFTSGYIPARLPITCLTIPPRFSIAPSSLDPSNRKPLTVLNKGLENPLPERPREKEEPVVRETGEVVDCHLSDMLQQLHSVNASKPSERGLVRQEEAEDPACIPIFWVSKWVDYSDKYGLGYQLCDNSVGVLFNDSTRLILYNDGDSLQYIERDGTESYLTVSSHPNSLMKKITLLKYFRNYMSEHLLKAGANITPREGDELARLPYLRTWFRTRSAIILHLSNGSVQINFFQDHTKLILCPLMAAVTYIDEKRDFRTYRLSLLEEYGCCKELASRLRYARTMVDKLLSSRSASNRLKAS
Experimental: as §3, §1, §2
In a final reaction volume of 30 μl, PLK1 T210D (h) (0.125 ng/ml) is incubated with 50 mM Hepes pH 8.0, 2 mM MnCl2, 1 mM DTT, 2 μM of peptide Biotin-Tds linker-[…], 0.1 μM ATP and 2 nM [γ-^33P-ATP] (6.0 μCi/ml). After incubation of 40 minutes at room temperature, the reaction is stopped by addition of 40 μL of stop solution containing 8.7 mM EDTA, BSA 0.17%, 0.17% Triton X-100, 25 mg/ml SPA beads (GE-healthcare). The plate is centrifuged and read for Scintillation imaging on Leadseeker.

[7] = target: PLK2 (h) (Homo sapiens, UniProt Q9NYY3); assay: PLK2 human kinase inhibition, SPA; type: biochemical; conditions: read-out: PLK2 pIC50 (converted)
PLK2 (h), sequence (Q9NYY3 whole entry): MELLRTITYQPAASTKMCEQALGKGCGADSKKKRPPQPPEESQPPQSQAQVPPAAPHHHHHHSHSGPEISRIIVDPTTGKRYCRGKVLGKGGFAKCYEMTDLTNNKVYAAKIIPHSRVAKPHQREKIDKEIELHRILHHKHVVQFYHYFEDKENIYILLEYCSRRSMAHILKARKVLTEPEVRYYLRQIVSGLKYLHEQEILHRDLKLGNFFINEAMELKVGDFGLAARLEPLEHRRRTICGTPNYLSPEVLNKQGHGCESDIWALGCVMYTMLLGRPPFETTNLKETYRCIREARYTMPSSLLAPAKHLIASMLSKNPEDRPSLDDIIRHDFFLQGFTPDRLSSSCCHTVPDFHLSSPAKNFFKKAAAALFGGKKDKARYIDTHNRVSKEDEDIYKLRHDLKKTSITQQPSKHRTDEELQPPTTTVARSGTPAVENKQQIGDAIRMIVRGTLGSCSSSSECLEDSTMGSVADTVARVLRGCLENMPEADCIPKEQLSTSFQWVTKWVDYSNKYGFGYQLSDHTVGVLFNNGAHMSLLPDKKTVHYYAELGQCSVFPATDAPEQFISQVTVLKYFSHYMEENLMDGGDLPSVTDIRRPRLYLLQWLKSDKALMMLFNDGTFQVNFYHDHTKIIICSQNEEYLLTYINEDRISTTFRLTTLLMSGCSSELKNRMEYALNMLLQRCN
Experimental: as §3, §1, §2
(§4) In a final reaction volume of 30 μl, PLK2 (h) (30 μg/ml) is incubated with 50 mM Hepes pH 8.0, 2 mM MnCl2, 1 mM DTT, 2 μM of peptide Biotin-Tds linker-[…], 0.1 μM ATP and 2 nM [γ-^33P-ATP] (6.0 μCi/ml). After incubation of 20 minutes at room temperature, the reaction is stopped by addition of 40 μL of stop solution containing 8.7 mM EDTA, BSA 0.17%, 0.17% Triton X-100, 25 mg/ml SPA beads (GE-healthcare). The plate is centrifuged and read for Scintillation imaging on Leadseeker.

[8] = target: PLK3 (h) (Homo sapiens, UniProt Q9H4B4); assay: PLK3 human kinase inhibition, SPA; type: biochemical; conditions: read-out: PLK3 pIC50 (converted)
PLK3 (h), sequence (Q9H4B4 whole entry): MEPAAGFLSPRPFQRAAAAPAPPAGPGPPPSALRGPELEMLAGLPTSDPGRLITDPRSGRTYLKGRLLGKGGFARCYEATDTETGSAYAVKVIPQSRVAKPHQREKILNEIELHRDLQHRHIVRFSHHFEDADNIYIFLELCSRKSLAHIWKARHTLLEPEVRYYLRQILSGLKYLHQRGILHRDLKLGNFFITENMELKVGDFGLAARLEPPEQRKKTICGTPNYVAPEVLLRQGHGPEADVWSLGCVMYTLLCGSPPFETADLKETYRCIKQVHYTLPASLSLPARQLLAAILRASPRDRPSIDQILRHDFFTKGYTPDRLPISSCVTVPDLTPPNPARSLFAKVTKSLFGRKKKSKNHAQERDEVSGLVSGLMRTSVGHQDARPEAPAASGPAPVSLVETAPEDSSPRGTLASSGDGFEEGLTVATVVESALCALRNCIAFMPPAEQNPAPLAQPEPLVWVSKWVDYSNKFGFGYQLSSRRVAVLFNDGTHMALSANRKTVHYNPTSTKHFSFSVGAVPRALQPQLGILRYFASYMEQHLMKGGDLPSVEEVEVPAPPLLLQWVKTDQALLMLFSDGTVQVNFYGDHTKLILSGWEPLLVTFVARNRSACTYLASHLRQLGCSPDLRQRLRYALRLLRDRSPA
Experimental: as §3, §1, §2
as §4, with “PLK3” for “PLK2”

[9] = tested on: HCT-116; assay: Cellular proliferation assay (Alamar blue), HCT-116; type: cell-based; conditions: Homo sapiens, 10% FCS, 72 hours with compound, Alamar blue 4 h
Experimental: (§5) […] functional properties of these compounds were tested in cellular proliferation assays on a panel of different cell lines in the presence of 10% FCS serum (37° C. and 5% (v/v) CO2). In a first step these cells were seeded and incubated for 24 hours in the absence of compound. In the second step the cells were incubated for 72 hours with the compounds to be tested for 72 hours. The viable cell number was finally assessed in a standard Alamar blue cell viability assay.
(§6) The viable cell number was assessed by incubation for either 4 h (HCT-116, H1299) 6 h (U87-MG) or 24 h (A2780, MDA-MB-231) with Alamar blue (Resazurin 9 μg/ml, K-Ferrocyanide 90 μM, K-Ferricyanide 90 μM) and the converted fluorescent product was quantified on a fluorescent plate reader (544 nm/590 nm). Effect of the compounds is calculated as of on control cells.

[10] = tested on: U87-MG; assay: Cellular proliferation assay (Alamar blue), U87-MG; type: cell-based; conditions: Homo sapiens, U-87 MG; 10% FCS; 72 hours with compound; Alamar blue 6 h; read-out: U87-MG (cellular proliferation assay, Table 4) (converted)
Experimental: as §5, §6

[11] = tested on: A2780; assay: Cellular proliferation assay (Alamar blue), A2780; type: cell-based; conditions: Homo sapiens, 10% FCS, 72 hours with compound, Alamar blue 24 h, read-out: A2780 (cellular proliferation assay, Table 4) (converted)
Experimental: as §5, §6

PLK4 (h), sequence (O00444 whole entry): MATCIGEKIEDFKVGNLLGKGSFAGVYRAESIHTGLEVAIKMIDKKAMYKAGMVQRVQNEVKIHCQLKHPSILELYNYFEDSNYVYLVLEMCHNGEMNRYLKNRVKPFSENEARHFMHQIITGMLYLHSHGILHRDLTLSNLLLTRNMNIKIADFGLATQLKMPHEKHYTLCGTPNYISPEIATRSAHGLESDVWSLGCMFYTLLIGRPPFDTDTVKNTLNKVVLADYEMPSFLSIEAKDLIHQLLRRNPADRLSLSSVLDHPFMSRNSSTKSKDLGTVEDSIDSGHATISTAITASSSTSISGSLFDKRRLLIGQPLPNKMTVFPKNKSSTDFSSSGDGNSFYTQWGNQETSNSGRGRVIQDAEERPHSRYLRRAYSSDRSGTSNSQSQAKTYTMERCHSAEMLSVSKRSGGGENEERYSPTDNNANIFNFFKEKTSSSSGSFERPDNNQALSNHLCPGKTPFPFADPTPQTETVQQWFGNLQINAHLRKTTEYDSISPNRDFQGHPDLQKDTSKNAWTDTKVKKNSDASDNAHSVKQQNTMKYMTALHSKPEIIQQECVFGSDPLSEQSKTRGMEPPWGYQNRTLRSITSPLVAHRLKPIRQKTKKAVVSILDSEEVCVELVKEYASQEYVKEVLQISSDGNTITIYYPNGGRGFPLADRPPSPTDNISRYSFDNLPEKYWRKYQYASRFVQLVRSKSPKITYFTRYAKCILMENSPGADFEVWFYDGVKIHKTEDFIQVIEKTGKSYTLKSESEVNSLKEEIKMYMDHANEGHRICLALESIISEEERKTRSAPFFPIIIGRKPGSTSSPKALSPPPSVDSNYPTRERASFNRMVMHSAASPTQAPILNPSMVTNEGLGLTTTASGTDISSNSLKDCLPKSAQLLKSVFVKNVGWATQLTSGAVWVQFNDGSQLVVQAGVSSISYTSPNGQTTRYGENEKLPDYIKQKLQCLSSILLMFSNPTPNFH

SMILES	IC50 [1]	IC50 [2]	IC50 [3]	IC50 [4]	IC50 [5]	IC50 [6]	IC50 [7]	IC50 [8]	IC50 [9]	IC50 [10]	IC50 [11]
COc1ccc2cc1CN1CCC[C@H]1C(=O)NCCCc1ccc(cn1)-c1ccnc(n1)N2 [Compound 2]	> 10 µM	> 10 µM	> 10 µM	> 10 µM	> 10 µM	> 10 µM	> 10 µM	> 10 µM	> 10 µM	> 10 µM	
COc1ccc2cc1CN(C)CCNC(=O)CN1CCN(CC1)Cc1cc(Br)cc(c1)Nc1nccc-2n1 [Compound 50]	9.33 µM	> 10 µM	5.13 µM	> 10 µM	> 10 µM	> 10 µM	> 10 µM	> 10 µM	> 10 µM	> 10 µM	> 10 µM
COc1ccc2cc1CNCCNC(=O)C1CCN(CC1)Cc1cc(ccc1N1CCOCC1)Nc1nccc-2n1 [Compound 64]	1.2 µM	7.41 µM	> 10 µM	> 10 µM	> 10 µM	> 10 µM	> 10 µM	> 10 µM			
COc1ccc2cc1CN(C)CCNC(=O)C1CCN(CC1)Cc1cc(Br)cc(c1)Nc1nccc-2n1 [Compound 79]	5.25 µM	> 10 µM	0.832 µM	> 10 µM	> 10 µM	> 10 µM	> 10 µM	> 10 µM	> 10 µM	7.59 µM	4.79 µM
CN1CCCNC(=O)[C@@H]2CCCN2Cc2cc(Br)cc(c2)Nc2nccc(n2)-c2ccc(cc2)C1 [Compound 159]	1.48 µM	5.75 µM	6.31 µM	> 10 µM	> 10 µM	> 10 µM	> 10 µM	> 10 µM	> 10 µM	6.92 µM	2.69 µM
COc1ccc2cc1CN(C)CCNC(=O)[C@@H]1CCCN1Cc1cc(Br)cc(c1)Nc1nccc-2n1 [Compound 174]	~6.92 µM	8.71 µM	4.79 µM	> 10 µM	> 10 µM	> 10 µM	> 10 µM	> 10 µM	> 10 µM	> 10 µM	1.66 µM
O=C1NCc2cccc(c2)-c2ccnc(n2)Nc2ccc(cc2)CN[C@H]1CO [Compound 191]	> 10 µM	> 10 µM	7.94 µM	> 10 µM	7.41 µM	> 10 µM	> 10 µM	> 10 µM			

The next lines start with the values.

IC50 [1]	IC50 [2]	IC50 [3]	IC50 [4]	IC50 [5]	IC50 [6]	IC50 [7]	IC50 [8]	IC50 [9]	IC50 [10]	IC50 [11]	SMILES
1.12 µM	> 10 µM	1.91 µM	> 10 µM	> 10 µM	> 10 µM	> 10 µM	> 10 µM	> 10 µM	5.89 µM	2.69 µM	CN1CCCNC(=O)C2CCN(CC2)Cc2cc(Br)cc(c2)Nc2nccc(n2)-c2ccc(cc2)C1 [Compound 63]
2.09 µM	> 10 µM	2.95 µM	> 10 µM	> 10 µM	> 10 µM	> 10 µM	> 10 µM	> 10 µM	7.94 µM	3.89 µM	CN1CCCNC(=O)CN2CCN(CC2)Cc2cc(Br)cc(c2)Nc2nccc(n2)-c2ccc(cc2)C1 [Compound 137]
3.55 µM	> 10 µM	> 3.02 µM	> 10 µM	> 10 µM	> 10 µM	> 10 µM	> 10 µM	> 10 µM	> 10 µM	> 10 µM	CN1CCCNC(=O)CN2CCN(CC2)Cc2cccc(c2)Nc2nccc(n2)-c2ccc(cc2)C1 [Compound 143]
3.89 µM	5.25 µM	> 10 µM	> 10 µM	> 10 µM	> 10 µM	> 10 µM	> 10 µM	> 10 µM	5.25 µM	4.17 µM	COc1ccc2cc1CN(C)CCCNC(=O)[C@@H]1CCCN1Cc1cc(Br)cc(c1)Nc1nccc-2n1 [Compound 170]
